Read-outs that look alike come from different tables or passages of the source.
How the values were obtained:
Bovine brain tubulin [1] = tested on: Bovine brain tubulin; set-up: method as in PMID 20225862; details: data taken from the literature ref 3; read-out: TP IC50 (tubulin polymerisation); cited from earlier work
Bovine brain tubulin [2] = molecular target: T1, Bovine brain tubulin (Bos taurus, UniProt P81947+Q6B856); set-up: method as in PMID 20225862; details: data taken from the literature ref 3; cited from earlier work
T1 construct: Bovine brain tubulin, prepared as described previously,[16] was used in studies presented here; from tissue; host or cells: bovine brain
T1 sequence (Q6B856 whole entry): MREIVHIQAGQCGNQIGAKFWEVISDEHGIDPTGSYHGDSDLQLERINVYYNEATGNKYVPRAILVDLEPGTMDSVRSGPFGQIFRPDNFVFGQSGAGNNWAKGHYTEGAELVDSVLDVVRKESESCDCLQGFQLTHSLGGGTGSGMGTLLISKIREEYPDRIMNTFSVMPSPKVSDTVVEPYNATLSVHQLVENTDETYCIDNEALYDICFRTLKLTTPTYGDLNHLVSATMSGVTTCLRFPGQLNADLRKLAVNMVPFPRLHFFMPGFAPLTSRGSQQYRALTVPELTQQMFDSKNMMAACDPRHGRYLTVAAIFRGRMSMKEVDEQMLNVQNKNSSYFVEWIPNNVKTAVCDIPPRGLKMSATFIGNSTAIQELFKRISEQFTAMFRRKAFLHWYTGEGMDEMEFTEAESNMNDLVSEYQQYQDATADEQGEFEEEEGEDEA
T1 sequence (P81947 whole entry): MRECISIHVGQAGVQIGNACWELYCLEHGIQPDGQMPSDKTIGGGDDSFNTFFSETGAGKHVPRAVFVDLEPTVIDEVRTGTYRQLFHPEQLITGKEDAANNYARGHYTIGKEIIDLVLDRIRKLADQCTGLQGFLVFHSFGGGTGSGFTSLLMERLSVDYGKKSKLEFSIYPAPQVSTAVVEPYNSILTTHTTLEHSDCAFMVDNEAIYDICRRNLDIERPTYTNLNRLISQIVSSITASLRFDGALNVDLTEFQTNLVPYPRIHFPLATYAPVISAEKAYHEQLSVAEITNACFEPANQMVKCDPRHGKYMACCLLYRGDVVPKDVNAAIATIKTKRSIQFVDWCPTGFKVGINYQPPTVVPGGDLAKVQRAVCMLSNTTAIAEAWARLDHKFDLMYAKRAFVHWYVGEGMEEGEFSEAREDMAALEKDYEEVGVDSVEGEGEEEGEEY

Bovine brain tubulin [3] = molecular target: T1, Bovine brain tubulin; experiment: Inhibition of [3H]colchicine binding to tubulin; details: mean ±SD; for inhibition at 5 µM: 5 μM inhibitor, 1.0 μM tubulin, 5.0 μM [3H]colchicine, read-out: CB [% inhib.] 5 μM inhibitor
Procedure: (§1) Tubulin assays: Bovine brain tubulin, prepared as described previously,[16] was used in studies presented here. Assembly IC50 values were determined as described in detail elsewhere.[17] Briefly, 1.0 mg mL^−1 (10 μM) tubulin was pre-incubated without GTP with varying compound concentrations for 15 min at 30 °C. Reaction mixtures were placed on ice, and GTP (final concentration, 0.4 mM) was added. The reaction mixtures were transferred to cuvettes, held at 0 °C in a recording spectrophotometer. Baselines were established at 0 °C, and increase in turbidity was followed for 20 min following a rapid (<30 s) jump to 30 °C. Compound concentrations required to decrease the turbidity increase by 50 % were determined. The method for measuring inhibition of the binding of [^3H]colchicine to tubulin was described in detail previously.[18] Reaction mixtures contained 0.1 mg mL^−1 (1.0 μM) tubulin, 5.0 μM [^3H]colchicine, and potential inhibitor at 5.0 μM. […] A minimum of two experiments were performed with each compound.

[4] = tested on: DU-145 human prostate cancer cells; experiment: Antiproliferative assay (WST-1, 96 h), DU-145; assay type: cell-based; details: for GI50: Homo sapiens, DU-145 cells, 96 h, WST-1, mean of three determinations; for fold more active than the 3′-methoxy derivatives: vs 3′-methoxy derivatives 16 b and 17 b
Procedure: (§2) Cell lines: DU-145 (brain metastasis carcinoma of the prostate) and MDA MB-231 (metastatic pleural effusion of breast adenocarcinoma) established human cell lines were obtained from ATCC Global Bioresource Center. Cells were maintained in a 5 % CO2 humidified atmosphere at 37 °C in RPMI-1640 medium, supplemented with 10 % fetal bovine serum, penicillin, (100 U mL^−1), and streptomycin (0.1 mg mL^−1). The effect of drugs on tubule formation was assessed using an angiogenesis kit (TCS-Cellworks).
(§3) Antiproliferative assays: DU-145 and MDA MB-231 cells were seeded into 96-well microtitre plates (5000 cells per well) and treated with compound (10^−9–10^−4 M) or with vehicle control. At 96 h post-treatment, live cell counts were determined by WST-1 cell proliferation assay (Roche, Penzberg, Germany), as per the manufacturer’s instructions. Viability results were expressed as a percentage of mean control values resulting in the calculation of the 50 % growth inhibition (GI50). All experiments were performed in triplicate.

[5] = tested on: HUVECs within a matrix of human diploid fibroblasts of dermal origin; experiment: In vitro model of angiogenesis (tubule formation, co-culture); assay type: cell-based; details: 25 nM and 50 nM, VEGF-stimulated, quantified after 11 days
Procedure: Compounds 16 f and 17 f were also assayed for anti-angiogenic activity in an in vitro model of angiogenesis, wherein endothelial cells co-cultured in a matrix of human dermal fibroblasts are used to assess anti-angiogenic potential (Figure 2). When stimulated with VEGF the endothelial cells proliferate and migrate through the matrix to form tubule-like structures. The extent of tubule formation was quantified after 11 days as described elsewhere.[14] […] Quantification carried out by calculating total pixel length reflects the lack of tubule formation.
Cell lines: DU-145 (brain metastasis carcinoma of the prostate) and MDA MB-231 (metastatic pleural effusion of breast adenocarcinoma) established human cell lines were obtained from ATCC Global Bioresource Center. […] The effect of drugs on tubule formation was assessed using an angiogenesis kit (TCS-Cellworks).
Anti-angiogenic assays: HUVECs were cultured in a 24-well plate within a matrix of human diploid fibroblasts of dermal origin in optimised medium supplied by the company. […] The extent of tubule formation was then quantified, either manually by eye or using free software available through the National Institutes of Health website (NIH image [Mac version] from http://rsb.info.nih.gov/nih-image/download.html). […] After correcting for background the software counted the number of pixels representing tubules. […]

Bovine brain tubulin [6] = experiment: Tubulin polymerisation (assembly) assay; assay type: biochemical; details: 10 μM tubulin, mean ±SD of at least two determinations; read-out: TP IC50 (tubulin polymerisation)
Procedure: as §1

[7] = tested on: MDA MB-231 human breast cancer cells; experiment: Antiproliferative assay (WST-1, 96 h), MDA MB-231; assay type: cell-based; details: MDA MB-231 cells, WST-1, mean of three determinations
Procedure: as §2, §3

Lung HOP-62 = experiment: NCI 60-cell line assay, HOP-62; assay type: cell-based; details: Homo sapiens, NCI-60 panel, mean of three determinations
Procedure: (§4) Data from seven cell lines are presented along with the mean activity across the whole panel (MGM value). Screening was conducted at concentrations ranging from 10 nM upwards, with maximal activity (where a 50 % growth inhibition was obtained in all cell lines at a concentration of 10 nM) being indicated by an MGM value of 10 nM.

Leukemia CCRF-CEM = experiment: NCI 60-cell line assay, CCRF-CEM; assay type: cell-based; details: Homo sapiens, NCI-60 panel, mean of three determinations
Procedure: as §4

Renal SN12-C = experiment: NCI 60-cell line assay, SN12-C; assay type: cell-based; details: Homo sapiens, SN12C; NCI-60 panel, mean of three determinations
Procedure: as §4

Melanoma UACC-62 = experiment: NCI 60-cell line assay, UACC-62; assay type: cell-based; details: Homo sapiens, NCI-60 panel, lowest concentration screened 10 nM
Procedure: as §4

NCI 60-cell line panel = experiment: NCI 60-cell line assay, mean across whole panel (MGM); assay type: cell-based; details: NCI-60 panel
Procedure: as §4

CNS SF-539 = experiment: NCI 60-cell line assay, SF-539; assay type: cell-based; details: CNSSF-539; NCI-60 panel, mean of three determinations
Procedure: as §4

Ovarian OVCAR-3 = experiment: NCI 60-cell line assay, OVCAR-3; assay type: cell-based; details: Homo sapiens, NCI-60 panel, lowest concentration screened 10 nM
Procedure: as §4

Colon HCT-116 = experiment: NCI 60-cell line assay, HCT-116; assay type: cell-based; details: Homo sapiens, NCI-60 panel, mean of three determinations
Procedure: as §4

carbonic anhydrase = experiment: Carbonic anhydrase inhibition; assay type: biochemical
[8] = tested on: MDA MB-231 human breast cancer cells; set-up: method as in PMID 24124095; details: MDA MB-231 cells; data taken from the literature ref 8; cited from earlier work
[9] = tested on: DU-145 human prostate cancer cells; set-up: method as in PMID 24124095; details: DU-145 cells; data taken from the literature ref 8; cited from earlier work
[10] = set-up: method as in PMID 22247790, PMID 24124095; details: THIQ series, cell line not printed ref 7, 8; cited from earlier work

Q: For `COc1cc2c(cc1OS(N)(=O)=O)CC[C@@H]1[C@@H]2CC[C@]2(C)[C@@H](OS(N)(=O)=O)CC[C@@H]12` [1 a], which IC50 (Bovine brain tubulin [1]) is on record?
A: The IC50 was 2200 ± 300 nM.

Q: What about the “CB [% inhib.] 5 μM inhibitor” value (Bovine brain tubulin [2]) of the same compound?
A: The value was 28±3%.

Q: What does the source list for `COc1cc2c(cc1OS(N)(=O)=O)CC[C@@H]1[C@@H]2CC[C@]2(C)[C@@H](CC#N)CC[C@@H]12` [1 b]?
A: IC50 (Bovine brain tubulin [1]): 1300 ± 80 nM; CB [% inhib.] 5 μM inhibitor (Bovine brain tubulin [2]): 78±0.9%

Q: Which results are given for `CCc1cc2c(cc1OS(N)(=O)=O)CC[C@@H]1[C@@H]2CC[C@]2(C)[C@@H](OS(N)(=O)=O)CC[C@@H]12` [1 c]?
A: IC50 (Bovine brain tubulin [1]): 1300 ± 10 nM; CB [% inhib.] 5 μM inhibitor (Bovine brain tubulin [2]): 45±4%

Q: For `COc1cc(OC)cc(C(=O)N2CCc3cc(O)c(OC)cc3C2=O)c1` [16 f, 6-Hydroxy-2-(3,5-dimethoxybenzoyl)-7-methoxy-3,4-dihydroisoquinolin-1(2H)-one], which inhibition at 5 µM (Bovine brain tubulin [3]) is on record?
A: The inhibition at 5 µM was 81 ± 0.7%.

Q: And the GI50 [4]?
A: Its GI50 is 215 nM.

Q: And the “fold more active than the 3′-methoxy derivatives” value [4]?
A: The value was > 10 fold.

Q: And the “formation of tubule-like structures” value [5]?
A: Its value is “almost completely inhibits”.

Q: What about the IC50 (Bovine brain tubulin [6]) of the same compound?
A: The IC50 was 1500 ± 100 nM.

Q: And the GI50 [7]?
A: The GI50 was 161 nM.

Q: Which results are given for `COc1cc2c(cc1O)CCN(C(=O)c1cc(OC)c(OC)c(OC)c1)C2=O` [16 g, 6-Hydroxy-7-methoxy-2-(3,4,5-trimethoxybenzoyl)-3,4-dihydroisoquinolin-1(2H)-one]?
A: GI50 (Lung HOP-62): 29.5 nM; inhibition at 5 µM (Bovine brain tubulin [3]): 83 ± 2%; GI50 [4]: 51 nM; GI50 (Leukemia CCRF-CEM): 17.1 nM; GI50 (Renal SN12-C): 56 nM; GI50 (Melanoma UACC-62): < 10 nM; IC50 (Bovine brain tubulin [6]): 1300 ± 100 nM; GI50 [7]: 71 nM; mean activity in the NCI 60-cell line assay (NCI 60-cell line panel): 33 nM; MGM (mean concentration that caused 50 % growth inhibition in all 60 cell lines) (NCI 60-cell line panel; all 60 cell lines): 0.033 µM; GI50 (CNS SF-539): 10.2 nM; GI50 (Ovarian OVCAR-3): < 10 nM; GI50 (Colon HCT-116): 21.6 nM

Q: Which results are given for `COc1cc(OC)cc(C(=O)N2CCc3cc(OS(N)(=O)=O)c(OC)cc3C2=O)c1` [17 f, 2-(3,5-Dimethoxybenzoyl)-7-methoxy-6-sulfamoyloxy-3,4-dihydroisoquinolin-1(2H)-one]?
A: inhibition at 1 µM (Bovine brain tubulin [3]; 1 μM inhibitor, read-out: CB [% inhib.] 1 μM inhibitor): 65 ± 3%; inhibition at 5 µM (Bovine brain tubulin [3]): 89 ± 0.1%; GI50 [4]: 179 nM; fold more active than the 3′-methoxy derivatives [4]: > 10 fold; IC50 (carbonic anhydrase): 890 nM; formation of tubule-like structures [5]: almost completely inhibits; IC50 (Bovine brain tubulin [6]): 1300 ± 10 nM; GI50 [7]: 118 nM

Q: With `COc1cc2c(cc1OS(N)(=O)=O)CCN(C(=O)c1cc(OC)c(OC)c(OC)c1)C2=O` [17 g, 7-Methoxy-2-(3,4,5-trimethoxybenzoyl)-6-sulfamoyloxy-3,4-dihydroisoquinolin-1(2H)-one] as the compound, how does the inhibition at 5 µM (Bovine brain tubulin [3]) read?
A: The inhibition at 5 µM was 85 ± 2%.

Q: And the GI50 [4]?
A: Its GI50 is 166 nM.

Q: What about the IC50 (Bovine brain tubulin [6]) of the same compound?
A: The IC50 was 1200 ± 30 nM.

Q: What about the GI50 [7] of the same compound?
A: The GI50 was 275 nM.

Q: What does the source list for `COc1cc2c(cc1O)CCN(C(=O)c1cc(OC)c(OC)c(OC)c1)C2` [18 c]?
A: GI50 [8]: 733 nM; GI50 [9]: 921 nM

Q: Which results are given for `COc1cc2c(cc1OS(N)(=O)=O)CCN(C(=O)c1cc(OC)c(OC)c(OC)c1)C2` [19 c]?
A: GI50 [8]: 1720 nM; GI50 [9]: 1810 nM

Q: Which GI50 [10] does the source give for `COc1cccc(CN2CCc3cc(OS(N)(=O)=O)c(OC)cc3C2)c1` [compound 2] here?
A: Its GI50 is 2100 nM.

From publication PMC4114533, “Synthesis, Anti-tubulin and Antiproliferative SAR of Steroidomimetic Dihydroisoquinolinones” (Chemmedchem, 2014)
